Converted amounts (≈) assume the structure as drawn.
What was measured:
Format in all cases: functional
[1] = test system: Dialister pneumosintes; assay: Antimicrobial activity against Dialister pneumosintes by agar dilution method
[2] = test system: Dialister micraerophilus; assay: Antimicrobial activity against Dialister micraerophilus by agar dilution method
[3] = test system: Dialister pneumosintes; assay: Antimicrobial activity against Dialister pneumosintes assessed as susceptibility breakpoint by CLSI method
[4] = test system: Dialister micraerophilus; assay: Antimicrobial activity against Dialister micraerophilus assessed as susceptibility breakpoint by CLSI method
[5] = test system: Dialister pneumosintes; assay: Antimicrobial activity against Dialister pneumosintes assessed as susceptibility breakpoint by CA-SFM method
[6] = test system: Dialister micraerophilus; assay: Antimicrobial activity against Dialister micraerophilus assessed as susceptibility breakpoint by CA-SFM method
[7] = test system: Dialister propionicifaciens; assay: Antimicrobial activity against Dialister propionicifaciens by agar dilution method
[8] = test system: Dialister propionicifaciens; assay: Antimicrobial activity against Dialister propionicifaciens assessed as susceptibility breakpoint by CLSI method
[9] = test system: Dialister invisus; assay: Antimicrobial activity against Dialister invisus assessed as susceptibility breakpoint by CLSI method
[10] = test system: Dialister propionicifaciens; assay: Antimicrobial activity against Dialister propionicifaciens assessed as susceptibility breakpoint by CA-SFM method
[11] = test system: Dialister invisus; assay: Antimicrobial activity against Dialister invisus assessed as susceptibility breakpoint by CA-SFM method
[12] = test system: Dialister invisus; assay: Antimicrobial activity against Dialister invisus by agar dilution method

SMILES | MIC [1] [µg/mL] | MIC50 [1] [µg/mL] | MIC90 [1] [µg/mL] | MIC [2] [µg/mL] | Activity [3] | Activity [4] | Activity [5] | Activity [6] | MIC [7] [µg/mL] | Activity [8] | Activity [9] | Activity [10] | Activity [11] | MIC50 [2] [µg/mL] | MIC90 [2] [µg/mL] | MIC [12] [µg/mL]
C[C@@H](O)[C@H]1C(=O)N2C(C(=O)O)=C(S[C@@H]3CN[C@H](C(=O)Nc4cccc(C(=O)O)c4)C3)[C@H](C)[C@H]12 | 0.125 (≈ 0.263 µM) | 0.125 (≈ 0.263 µM) | 0.125 (≈ 0.263 µM) | 0.125 (≈ 0.263 µM) | <=4 ug ml-1 | <=4 ug ml-1 | <=4 ug ml-1 | <=4 ug ml-1 | 0.125 (≈ 0.263 µM) | <=4 ug ml-1 | <=4 ug ml-1 | <=4 ug ml-1 | <=4 ug ml-1 |  |  | 
CC1(C)S[C@@H]2[C@H](NC(=O)[C@H](N)c3ccc(O)cc3)C(=O)N2[C@H]1C(=O)O [AMOXICILLIN] | ≤ 0.06 | ≤ 0.06 | ≤ 0.06 | ≤ 0.06 | <=0.5 ug ml-1 | <=0.5 ug ml-1 | <=0.5 ug ml-1 | <=0.5 ug ml-1 | ≤ 0.06 | <=0.5 ug ml-1 | <=0.5 ug ml-1 | <=0.5 ug ml-1 | <=0.5 ug ml-1 | ≤ 0.06 | ≤ 0.06 | ≤ 0.06
CO[C@@]1(NC(=O)Cc2cccs2)C(=O)N2C(C(=O)O)=C(COC(N)=O)CS[C@@H]21 [CEFOXITIN] | 0.5 (≈ 1.17 µM) | 0.5 (≈ 1.17 µM) | 1 (≈ 2.34 µM) | 0.5 (≈ 1.17 µM) | <=16 ug ml-1 | <=16 ug ml-1 | <=8 ug ml-1 | <=8 ug ml-1 | 0.5 (≈ 1.17 µM) | <=16 ug ml-1 | <=16 ug ml-1 | <=8 ug ml-1 | <=8 ug ml-1 | 0.5 (≈ 1.17 µM) | 0.5 (≈ 1.17 µM) | 0.5 (≈ 1.17 µM)
CC(=O)OCC1=C(C(=O)O)N2C(=O)[C@@H](NC(=O)Cc3cccs3)[C@H]2SC1 [CEPHALOTHIN] | 0.25 (≈ 0.631 µM) | 0.5 (≈ 1.26 µM) | 1 (≈ 2.52 µM) | 0.25 (≈ 0.631 µM) |  |  | <=8 ug ml-1 | <=8 ug ml-1 | 0.25 (≈ 0.631 µM) |  |  | <=8 ug ml-1 | <=8 ug ml-1 |  |  | 
O=C(N[C@H](CO)[C@H](O)c1ccc([N+](=O)[O-])cc1)C(Cl)Cl [CHLORAMPHENICOL] | 0.25 (≈ 0.774 µM) | 0.25 (≈ 0.774 µM) | 0.5 (≈ 1.55 µM) | 0.25 (≈ 0.774 µM) | <=8 ug ml-1 | <=8 ug ml-1 | <=8 ug ml-1 | <=8 ug ml-1 | 0.25 (≈ 0.774 µM) | <=8 ug ml-1 | <=8 ug ml-1 | <=8 ug ml-1 | <=8 ug ml-1 | 0.25 (≈ 0.774 µM) | 1 (≈ 3.09 µM) | 0.25 (≈ 0.774 µM)
O=C(O)c1cn(C2CC2)c2cc(N3CCNCC3)c(F)cc2c1=O [CIPROFLOXACIN] | ≤ 0.06 | ≤ 0.06 | ≤ 0.06 | ≤ 0.06 |  |  | <=0.5 ug ml-1 | <=0.5 ug ml-1 | ≤ 0.06 |  |  | <=0.5 ug ml-1 | <=0.5 ug ml-1 | ≤ 0.06 | ≤ 0.06 | ≤ 0.06
CCC[C@@H]1C[C@@H](C(=O)N[C@@H]([C@H]2O[C@H](SC)[C@H](O)[C@@H](O)[C@H]2O)[C@H](C)Cl)N(C)C1 [CLINDAMYCIN] | 0.125 (≈ 0.294 µM) | 0.125 (≈ 0.294 µM) | 0.125 (≈ 0.294 µM) | 0.125 (≈ 0.294 µM) | <=2 ug ml-1 | <=2 ug ml-1 | <=2 ug ml-1 | <=2 ug ml-1 | 0.125 (≈ 0.294 µM) | <=2 ug ml-1 | <=2 ug ml-1 | <=2 ug ml-1 | <=2 ug ml-1 | 0.125 (≈ 0.294 µM) | 0.125 (≈ 0.294 µM) | 0.125 (≈ 0.294 µM)
C[C@H]1c2cccc(O)c2C(=O)C2=C(O)[C@]3(O)C(=O)C(C(N)=O)=C(O)[C@@H](N(C)C)[C@@H]3[C@@H](O)[C@@H]21.O [DOXYCYCLINE] | ≤ 0.06 | 0.25 | 0.25 | ≤ 0.06 |  |  | <=4 ug ml-1 | <=4 ug ml-1 | ≤ 0.06 |  |  | <=4 ug ml-1 | <=4 ug ml-1 |  |  | 
CC[C@H]1OC(=O)[C@H](C)[C@@H](O[C@H]2C[C@@](C)(OC)[C@@H](O)[C@H](C)O2)[C@H](C)[C@@H](O[C@@H]2O[C@H](C)C[C@H](N(C)C)[C@H]2O)[C@](C)(O)C[C@@H](C)C(=O)[C@H](C)[C@@H](O)[C@]1(C)O [ERYTHROMYCIN] | 0.125 (≈ 0.17 µM) | 1 (≈ 1.36 µM) | 2 (≈ 2.73 µM) | 0.125 (≈ 0.17 µM) |  |  | <=1 ug ml-1 | <=1 ug ml-1 | 0.125 (≈ 0.17 µM) |  |  | <=1 ug ml-1 | <=1 ug ml-1 |  |  | 
C[C@@H](O)[C@H]1C(=O)N2C(C(=O)O)=C(SCCNC=N)C[C@H]12 [IMIPENEM ANHYDROUS] | ≤ 0.06 | ≤ 0.06 | 0.25 (≈ 0.835 µM) |  | <=4 ug ml-1 | <=4 ug ml-1 | <=4 ug ml-1 | <=4 ug ml-1 | ≤ 0.06 | <=4 ug ml-1 | <=4 ug ml-1 | <=4 ug ml-1 | <=4 ug ml-1 | 0.06 (≈ 0.2 µM) | ≤ 0.06 | 0.06 (≈ 0.2 µM)
C[C@H]1COc2c(N3CCN(C)CC3)c(F)cc3c(=O)c(C(=O)O)cn1c23.C[C@H]1COc2c(N3CCN(C)CC3)c(F)cc3c(=O)c(C(=O)O)cn1c23.O [LEVOFLOXACIN] | 0.25 | 0.25 | 0.5 | 0.25 |  |  | <=1 ug ml-1 | <=1 ug ml-1 | 0.25 |  |  | <=1 ug ml-1 | <=1 ug ml-1 |  |  | 
Cc1ncc([N+](=O)[O-])n1CCO [METRONIDAZOLE] | 1 (≈ 5.84 µM) | 4 (≈ 23.4 µM) | 8 (≈ 46.7 µM) | 1 (≈ 5.84 µM) | <=8 ug ml-1 | <=8 ug ml-1 | <=2 ug ml-1 | <=2 ug ml-1 | 1 (≈ 5.84 µM) | <=8 ug ml-1 | <=8 ug ml-1 | <=2 ug ml-1 | <=2 ug ml-1 | 2 (≈ 11.7 µM) | 8 (≈ 46.7 µM) | 2 (≈ 11.7 µM)
COc1c(N2C[C@@H]3CCCN[C@@H]3C2)c(F)cc2c(=O)c(C(=O)O)cn(C3CC3)c12 [MOXIFLOXACIN] | ≤ 0.06 | ≤ 0.06 | 0.06 (≈ 0.149 µM) | ≤ 0.06 |  |  | <=1 ug ml-1 | <=1 ug ml-1 | ≤ 0.06 |  |  |  |  | ≤ 0.06 | 0.25 (≈ 0.623 µM) | ≤ 0.06
CCN1CCN(C(=O)N[C@@H](C(=O)N[C@@H]2C(=O)N3[C@@H]2SC(C)(C)[C@@H]3C(=O)O)c2ccccc2)C(=O)C1=O [PIPERACILLIN] | ≤ 0.125 | 1 (≈ 1.93 µM) | 16 (≈ 30.9 µM) |  | <=32 ug ml-1 | <=32 ug ml-1 | <=8 ug ml-1 | <=8 ug ml-1 | 0.125 (≈ 0.242 µM) | <=32 ug ml-1 | <=32 ug ml-1 | <=8 ug ml-1 | <=8 ug ml-1 | 0.125 (≈ 0.242 µM) | 1 (≈ 1.93 µM) | 0.125 (≈ 0.242 µM)
CO[C@H]1/C=C/O[C@@]2(C)Oc3c(C)c(O)c4c(O)c(c(/C=N/N5CCN(C)CC5)c(O)c4c3C2=O)NC(=O)/C(C)=C\C=C\[C@H](C)[C@H](O)[C@@H](C)[C@@H](O)[C@@H](C)[C@H](OC(C)=O)[C@@H]1C [RIFAMPIN] | ≤ 0.06 | 2 (≈ 2.43 µM) | 4 (≈ 4.86 µM) | ≤ 0.06 |  |  | <=2 ug ml-1 | <=2 ug ml-1 | ≤ 0.06 |  |  | <=2 ug ml-1 | <=2 ug ml-1 | ≤ 0.06 | ≤ 0.06 | ≤ 0.06
CC[C@H]1OC(=O)[C@H](C)C(=O)[C@H](C)[C@@H](O[C@@H]2O[C@H](C)C[C@H](N(C)C)[C@H]2O)[C@](C)(OC)C[C@@H](C)C(=O)[C@H](C)[C@H]2N(CCCCn3cnc(-c4cccnc4)c3)C(=O)O[C@]12C [TELITHROMYCIN] | ≤ 0.06 | ≤ 0.06 | ≤ 0.06 | ≤ 0.06 |  |  | <=0.5 ug ml-1 | <=0.5 ug ml-1 | ≤ 0.06 |  |  | <=0.5 ug ml-1 | <=0.5 ug ml-1 | ≤ 0.06 | ≤ 0.06 | ≤ 0.06
CC1(C)S[C@@H]2[C@H](NC(=O)[C@H](C(=O)O)c3ccsc3)C(=O)N2[C@H]1C(=O)O [TICARCILLIN] | ≤ 0.06 | 0.25 (≈ 0.65 µM) | 2 (≈ 5.2 µM) | ≤ 0.06 | <=32 ug ml-1 | <=32 ug ml-1 | <=16 ug ml-1 | <=16 ug ml-1 | ≤ 0.06 | <=32 ug ml-1 | <=32 ug ml-1 | <=16 ug ml-1 | <=16 ug ml-1 | ≤ 0.06 | 0.5 (≈ 1.3 µM) | 0.25 (≈ 0.65 µM)

Source: ChEMBL document CHEMBL1151441, “Antimicrobial susceptibilities and clinical sources of Dialister species” (2007)
